Values quoted from earlier work in article PMC10674484, “A Spectroscopic and Molecular Dynamics Study on the Aggregation Properties of a Lipopeptide Analogue of Liraglutide, a Therapeutic Peptide against Diabetes Type 2” (Molecules, 2023).
Like-named read-outs stand apart in the source and are kept apart here.

Assays:
[1] = Text: Liraglutide (LG), a lipidated glucagon-like peptide 1 derivative, more than a decade ago became a once daily leading drug in the therapy of diabetes and obesity. However, despite its prominent role in the market, LG pharmacokinetics is still under scrutiny. Former studies have shown that LG complexation with human serum albumin (HSA) is one of the factors affecting LG circulation time and catabolism. Moreover, it has been shown that the relatively large size of HSA protects LG against proteolytic degradation or rapid renal filtration, resulting in a long half-life in human ...
[2] = remark: listed apart in the source
Text: (§1) From this point of view, it is interesting to compare the aggregation properties and binding affinity to serum proteins of Liraglutide, a once daily administration drug, and Semaglutide, a one weekly administration drug.

[3] = test system: albumin
Text: as §1

Substance | half-life ([1]; humans, subcutaneous administration) [h] | number of LP units per aggregate ([1]; pH 6.4) | number of LP units per aggregate ([1]; pH 8) | cac compared with Semaglutide [2] | affinity for albumin compared with Liraglutide [3]
Liraglutide | 11 to 15 | twelve | eight | lower than the latter | 
Semaglutide |  |  |  |  | markedly higher
